Test results: publication PMC11438102, “Modulation of cannabinoid receptor 2 alters neuroinflammation and reduces formation of alpha-synuclein aggregates in a rat model of nigral synucleinopathy” (Journal of Neuroinflammation, 2024)

Test system: RAW264.7 macrophages
Experiment: Phagocytosis assay with pHrodo green E. coli bioparticles
Type: cell-based
Details: additional incubation, regardless of LPS dose
Procedure: The RAW264.7 macrophage cells (ATCC Cat# TIB-71, RRID: CVCL_0493) were grown in sterile media which consisted of DMEM high glucose, 10% FBS, 2mM L-glutamine, 1x Pen-strep and 1x sodium pyruvate in a humidified 5% CO2 incubator at 37°C. RAW264.7 were maintained in […] tissue culture flasks and plated at a density of 1 × 10^4 cells in triplicate in 96-well plates for assays. Cells were stimulated with either lipopolysaccharide (LPS O111:B4; Sigma Cat#L2630) at 100ng/mL or 1000ng/mL (750EU/mL or 7500 EU/mL, respectively). One hour prior to this stimulation the cells were pre-treated with the CB2 inverse agonist SMM-189 at 3μM or 7 μm or its vehicle. Specifically for cell culture experiments, SMM-189 was formulated with 40% ethanol (v/v), 20% tween-20 (v/v) and 40% saline (v/v). A phagocytosis assay was conducted 24 h after LPS.
The phagocytosis assay was performed using pHrodo green E. coli bioparticles (Invitrogen Cat# P35366) according to the manufacturer’s instructions. Five images per well were then collected every 30 min for 24 h on an EVOS M7000 microscope (Invitrogen, ThermoFisher Scientific). The cells were maintained for this duration using an on-stage incubator kept at 37°C and 5% CO2. Analysis of the collected images was performed using EVOS Celleste software (version 5.0), which counted the cells and then measured the integrated optical density of fluorescence within each well over the 24-hour time course. Analysis was conducted on the average integrated optical density across triplicate wells. Results were consistent across duplicate experimental replicates.

Question: `C=C1[C@@H](C)[C@H]2[C@H](Cc3ccccc3)NC(=O)[C@]23[C@H](OC(C)=O)/C=C/[C@@](C)(O)C(=O)[C@@H](C)C/C=C/[C@H]3[C@@H]1O` [cytochalasin D, reference compound] was tested. Which “GFP expression (phagocytosis control)” value did it give?
Answer: significantly restricted
